From US20240246956A1, “CLASS IIA HISTONE DEACETYLASE (HDAC) DEGRADER LIGANDS AND METHODS OF USE THEREOF” (DANA-FARBER CANCER INSTITUTE, INC., priority 2021, published 2024)

Key:
class IIa HDACs = assay: Global quantitative proteomics, change in protein abundance in Kelly cells; format: cell-based, human; details: 1 μM, 5 hours, vs DMSO, moderated t-test, FIG. 4B-4C
Method: Cells were washed once with phosphate-buffered saline (PBS), harvested with CellstripperTM (Corning®), washed two additional times with PBS and snap frozen in liquid nitrogen. […] Proteins were precipitated using methanol/chloroform in Donovan et al., Elife 7:e38430 (2018). The precipitated protein was resuspended in 4 M Urea, 50 mM HEPES pH 7.4, followed by dilution to 1 M urea with the addition of 200 mM EPPS, pH 8. Proteins were first digested with LysC (1:50: enzyme:protein) for 12 hours at room temperature. The LysC digestion was diluted to 0.5 M Urea with 200 mM EPPS pH 8 followed by digestion with trypsin (1:50: enzyme:protein) for 6 hours at 37° C. Tandem mass tag (TMT) reagents (Thermo Fisher Scientific) were dissolved in anhydrous acetonitrile (ACN) according to manufacturer's instructions. Anhydrous ACN was added to each peptide sample to a final concentration of 30% v/v, and labeling was induced with the addition of TMT reagent to each sample at a ratio of 1:4 peptide:TMT label. The 11-plex labeling reactions were performed for 1.5 hours at room temperature and the reaction quenched by the addition of hydroxylamine to a final concentration of 0.3% for 15 minutes at room temperature. The sample channels were combined at a 1:1 ratio, desalted using C18 solid phase extraction cartridges (Waters®) and analyzed by LC-MS for channel ratio comparison. Samples were then combined using the adjusted volumes determined in the channel ratio analysis and dried down in a speed vacuum. The combined sample was then resuspended in 1% formic acid, and acidified (pH 2-3) before being subjected to desalting with C18 SPE (Sep-Pak®-, Waters®). […] Proteome Discoverer 2.2 (Thermo Fisher Scientific) was used for .RAW file processing and controlling peptide and protein level false discovery rates, assembling proteins from peptides, and protein quantification from peptides. […] TMT reporter ion intensities were measured using a 0.003 Da window around the theoretical m/z for each reporter ion in the MS3 scan. […]

HDAC5 = HDAC5 (Homo sapiens, UniProt Q9UQL6); assay: as above; format: cell-based; design: endogenous in cells; host or cells: Kelly cells; details: 1 μM, 5-hour treatment, vs DMSO, FIG. 3
Chain of HDAC5 (Q9UQL6 whole entry): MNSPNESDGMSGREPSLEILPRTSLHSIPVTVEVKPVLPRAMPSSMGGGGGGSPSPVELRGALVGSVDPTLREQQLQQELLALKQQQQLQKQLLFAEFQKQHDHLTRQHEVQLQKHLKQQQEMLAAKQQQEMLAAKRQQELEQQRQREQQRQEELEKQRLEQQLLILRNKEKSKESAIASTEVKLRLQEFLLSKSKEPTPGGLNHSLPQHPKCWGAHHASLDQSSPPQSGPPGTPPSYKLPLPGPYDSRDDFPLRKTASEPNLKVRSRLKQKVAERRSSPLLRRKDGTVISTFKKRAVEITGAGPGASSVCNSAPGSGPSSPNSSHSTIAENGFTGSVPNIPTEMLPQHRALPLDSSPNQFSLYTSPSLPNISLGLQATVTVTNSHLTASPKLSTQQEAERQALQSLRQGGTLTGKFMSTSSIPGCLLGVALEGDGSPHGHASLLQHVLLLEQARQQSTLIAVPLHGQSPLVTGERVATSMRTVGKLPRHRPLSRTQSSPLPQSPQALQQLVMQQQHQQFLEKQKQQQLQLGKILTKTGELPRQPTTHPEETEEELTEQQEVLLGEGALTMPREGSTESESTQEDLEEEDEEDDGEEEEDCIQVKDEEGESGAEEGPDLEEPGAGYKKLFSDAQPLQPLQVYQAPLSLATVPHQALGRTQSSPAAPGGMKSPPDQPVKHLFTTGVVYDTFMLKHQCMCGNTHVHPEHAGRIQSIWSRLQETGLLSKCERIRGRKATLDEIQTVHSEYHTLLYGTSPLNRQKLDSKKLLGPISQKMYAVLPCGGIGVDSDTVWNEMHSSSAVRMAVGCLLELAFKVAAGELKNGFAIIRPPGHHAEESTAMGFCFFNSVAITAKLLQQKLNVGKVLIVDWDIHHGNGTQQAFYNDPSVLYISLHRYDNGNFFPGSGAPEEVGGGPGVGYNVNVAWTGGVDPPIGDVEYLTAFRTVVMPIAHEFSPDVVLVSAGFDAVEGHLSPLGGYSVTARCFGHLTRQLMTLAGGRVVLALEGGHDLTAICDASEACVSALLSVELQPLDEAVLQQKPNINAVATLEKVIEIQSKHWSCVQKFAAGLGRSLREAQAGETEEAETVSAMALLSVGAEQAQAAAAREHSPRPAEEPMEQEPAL
Method: (§1) Cells were washed once with phosphate-buffered saline (PBS), harvested with CellstripperTM (Corning®), washed two additional times with PBS and snap frozen in liquid nitrogen. […] Proteins were precipitated using methanol/chloroform in Donovan et al., Elife 7:e38430 (2018). The precipitated protein was resuspended in 4 M Urea, 50 mM HEPES pH 7.4, followed by dilution to 1 M urea with the addition of 200 mM EPPS, pH 8. Proteins were first digested with LysC (1:50: enzyme:protein) for 12 hours at room temperature. The LysC digestion was diluted to 0.5 M Urea with 200 mM EPPS pH 8 followed by digestion with trypsin (1:50: enzyme:protein) for 6 hours at 37° C. Tandem mass tag (TMT) reagents (Thermo Fisher Scientific) were dissolved in anhydrous acetonitrile (ACN) according to manufacturer's instructions. Anhydrous ACN was added to each peptide sample to a final concentration of 30% v/v, and labeling was induced with the addition of TMT reagent to each sample at a ratio of 1:4 peptide:TMT label. The 11-plex labeling reactions were performed for 1.5 hours at room temperature and the reaction quenched by the addition of hydroxylamine to a final concentration of 0.3% for 15 minutes at room temperature. The sample channels were combined at a 1:1 ratio, desalted using C18 solid phase extraction cartridges (Waters®) and analyzed by LC-MS for channel ratio comparison. Samples were then combined using the adjusted volumes determined in the channel ratio analysis and dried down in a speed vacuum. The combined sample was then resuspended in 1% formic acid, and acidified (pH 2-3) before being subjected to desalting with C18 SPE (Sep-Pak®-, Waters®). […] The 96 resulting fractions were then pooled in a non-contiguous manner into 24 fractions and these fractions were used for subsequent mass spectrometry analysis. Data were collected using an Orbitrap FusionTM LumosTM mass spectrometer (Thermo Fisher Scientific, San Jose, CA, USA) coupled with a […] pump (Thermo Fisher Scientific). Peptides were separated on an EasySprayTM ES803.rev2 75 μm inner diameter microcapillary column (ThermoFisher Scientific). Peptides were separated using a 190 min gradient of 6-27% acetonitrile in 1.0% formic acid with a flow rate of 300 nL/min. Each analysis used an MS3-based TMT method as described in McAlister et al., Anal. Chem. 86(14):7150-7158 (2014). The data were acquired using a mass range of m/z 340-1350, resolution 120,000, automatic gain control (AGC) target 1×10^6, maximum injection time 100 ms, dynamic exclusion of 120 seconds for the peptide measurements in the Orbitrap FusionTM LumosTM mass spectrometer. Data dependent MS2 spectra were acquired in the ion trap with a normalized collision energy (NCE) set at 55%, AGC target set to 1.5×10^5 and a maximum injection time of 150 ms. MS3 scans were acquired in the Orbitrap FusionTM LumosTM mass spectrometer with a higher energy collision dissociation (HCD) set to 55%, AGC target set to 1.5×10^5, maximum injection time of 150 ms, resolution at 50,000 and with a maximum synchronous precursor selection (SPS) precursors set to 10. Proteome Discoverer 2.2 (Thermo Fisher Scientific) was used for .RAW file processing and controlling peptide and protein level false discovery rates, assembling proteins from peptides, and protein quantification from peptides. MS/MS spectra were searched against a Swissprot human database (December 2016) with both the forward and reverse sequences. […] TMT reporter ion intensities were measured using a 0.003 Da window around the theoretical m/z for each reporter ion in the MS3 scan. […] Reporter ion intensities were normalized and scaled using in-house scripts in the R framework. Statistical analysis was carried out using the limma package within the R framework as described in Ritchie et al., Nucleic Acids Res. 43(7):e47 (2015).

HDAC4 = HDAC4 (Homo sapiens, UniProt P56524); assay: as above; format: cell-based; design: endogenous in cells; host or cells: Kelly cells; details: 1 μM, 5-hour treatment, vs DMSO, FIG. 3
Chain of HDAC4 (P56524 whole entry): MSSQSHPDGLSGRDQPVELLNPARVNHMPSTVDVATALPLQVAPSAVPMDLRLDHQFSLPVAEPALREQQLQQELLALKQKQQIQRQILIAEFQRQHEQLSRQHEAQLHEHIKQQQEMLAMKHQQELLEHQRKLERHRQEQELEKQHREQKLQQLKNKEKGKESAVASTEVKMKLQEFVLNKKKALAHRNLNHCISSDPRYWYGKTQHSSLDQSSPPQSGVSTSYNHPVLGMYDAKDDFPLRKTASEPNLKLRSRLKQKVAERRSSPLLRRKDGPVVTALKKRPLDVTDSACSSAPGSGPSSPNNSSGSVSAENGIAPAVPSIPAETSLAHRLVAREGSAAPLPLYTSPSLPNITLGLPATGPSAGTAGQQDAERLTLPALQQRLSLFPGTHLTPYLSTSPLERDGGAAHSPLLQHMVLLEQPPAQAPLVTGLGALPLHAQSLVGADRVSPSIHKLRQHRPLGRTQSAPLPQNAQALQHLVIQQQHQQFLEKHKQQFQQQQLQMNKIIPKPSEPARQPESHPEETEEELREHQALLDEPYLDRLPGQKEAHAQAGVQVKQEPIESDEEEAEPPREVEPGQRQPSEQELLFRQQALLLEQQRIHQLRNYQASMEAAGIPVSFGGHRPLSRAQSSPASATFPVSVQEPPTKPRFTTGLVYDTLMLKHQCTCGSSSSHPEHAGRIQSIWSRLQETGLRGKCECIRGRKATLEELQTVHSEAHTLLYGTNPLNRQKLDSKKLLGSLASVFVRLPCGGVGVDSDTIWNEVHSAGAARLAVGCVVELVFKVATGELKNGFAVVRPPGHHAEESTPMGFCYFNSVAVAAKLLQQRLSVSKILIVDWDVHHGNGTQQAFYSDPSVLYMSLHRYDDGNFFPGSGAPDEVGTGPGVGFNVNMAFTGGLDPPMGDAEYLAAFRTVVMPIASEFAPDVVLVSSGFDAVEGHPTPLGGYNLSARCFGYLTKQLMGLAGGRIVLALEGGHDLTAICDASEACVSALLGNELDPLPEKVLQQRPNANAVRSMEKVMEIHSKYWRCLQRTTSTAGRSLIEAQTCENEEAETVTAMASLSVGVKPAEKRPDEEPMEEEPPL
Method: as §1

HDAC8 = HDAC8 (Homo sapiens, UniProt Q9BY41); details: FIG. 2A
Chain of HDAC8 (Q9BY41 whole entry): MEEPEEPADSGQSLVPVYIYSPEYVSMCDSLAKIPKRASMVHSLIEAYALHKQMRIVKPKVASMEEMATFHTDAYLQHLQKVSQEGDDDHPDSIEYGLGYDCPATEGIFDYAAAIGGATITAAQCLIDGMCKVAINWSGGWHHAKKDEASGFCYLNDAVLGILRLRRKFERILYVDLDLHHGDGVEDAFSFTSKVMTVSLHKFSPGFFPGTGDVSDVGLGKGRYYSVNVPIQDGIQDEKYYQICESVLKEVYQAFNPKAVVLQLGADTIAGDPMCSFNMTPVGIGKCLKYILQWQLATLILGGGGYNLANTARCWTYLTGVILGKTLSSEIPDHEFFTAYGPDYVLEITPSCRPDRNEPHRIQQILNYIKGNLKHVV
Method: (§2) The in vitro HDAC enzymatic assays were performed by Reaction Biology (Devault, PA).

HDAC6 = HDAC6 (Homo sapiens, UniProt Q9UBN7); details: FIG. 2A
Chain of HDAC6 (Q9UBN7 whole entry): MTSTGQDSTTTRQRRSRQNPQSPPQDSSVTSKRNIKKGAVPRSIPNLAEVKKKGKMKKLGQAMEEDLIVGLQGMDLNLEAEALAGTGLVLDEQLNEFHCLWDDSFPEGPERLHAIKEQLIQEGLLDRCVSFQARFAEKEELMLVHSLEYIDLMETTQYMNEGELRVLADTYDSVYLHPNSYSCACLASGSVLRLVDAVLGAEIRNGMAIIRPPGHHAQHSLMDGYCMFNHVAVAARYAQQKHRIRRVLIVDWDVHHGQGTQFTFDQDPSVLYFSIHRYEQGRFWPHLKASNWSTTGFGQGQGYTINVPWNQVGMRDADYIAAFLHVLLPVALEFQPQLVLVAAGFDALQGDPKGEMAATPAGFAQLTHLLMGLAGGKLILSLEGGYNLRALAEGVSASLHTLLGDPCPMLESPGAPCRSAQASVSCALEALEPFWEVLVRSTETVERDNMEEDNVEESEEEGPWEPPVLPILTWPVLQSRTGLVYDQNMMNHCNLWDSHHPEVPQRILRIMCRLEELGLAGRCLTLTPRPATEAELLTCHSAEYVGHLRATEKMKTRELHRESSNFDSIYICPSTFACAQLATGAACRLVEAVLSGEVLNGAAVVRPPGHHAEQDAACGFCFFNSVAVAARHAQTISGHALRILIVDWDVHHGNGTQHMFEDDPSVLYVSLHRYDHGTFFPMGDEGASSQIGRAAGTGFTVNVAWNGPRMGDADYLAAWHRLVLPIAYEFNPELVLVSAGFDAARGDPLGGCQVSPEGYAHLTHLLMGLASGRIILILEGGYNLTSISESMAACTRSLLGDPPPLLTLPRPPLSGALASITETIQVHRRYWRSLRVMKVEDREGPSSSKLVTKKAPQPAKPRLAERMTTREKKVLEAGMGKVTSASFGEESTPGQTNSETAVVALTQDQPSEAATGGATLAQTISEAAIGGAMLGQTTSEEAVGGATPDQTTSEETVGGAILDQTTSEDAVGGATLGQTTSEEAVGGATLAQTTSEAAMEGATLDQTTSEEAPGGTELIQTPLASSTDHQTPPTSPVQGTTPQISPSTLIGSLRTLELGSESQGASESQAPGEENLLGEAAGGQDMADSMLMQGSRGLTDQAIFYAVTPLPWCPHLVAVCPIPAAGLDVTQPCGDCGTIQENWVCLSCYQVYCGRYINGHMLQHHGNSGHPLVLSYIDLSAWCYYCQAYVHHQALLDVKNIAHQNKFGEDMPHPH
Method: as §2

CCN(CCNc1cccc2c1C(=O)N(C1CCC(=O)NC1=O)C2=O)C[C@@H](C)NC(=O)c1ccc(-c2noc(C(F)(F)F)n2)cc1 (stereo partly drawn) [Compound 16, N-((2R)-1-((2-((2-(2,6-dioxopiperidin-3-yl)-1,3-dioxoisoindolin-4-yl)amino)ethyl)(ethyl)amino)propan-2-yl)-4-(5-(trifluoromethyl)-1,2,4-oxadiazol-3-yl)benzamide]
class IIa HDAC levels (relative protein abundance) (class IIa HDACs): significant reduction | protein expression level of HDAC5 (HDAC5): reduction in protein expression level | protein expression level of HDAC4 (HDAC4): reduction in protein expression level

O=C1CCC(N2C(=O)c3cccc(NCCCCCCN4CCC(CNC(=O)c5cccc(-c6noc(C(F)(F)F)n6)c5)(c5nc(-c6ccccc6)cs5)CC4)c3C2=O)C(=O)N1 (centres unmarked) [Compound 1]
inhibition of HDAC8 (HDAC8): did not inhibit | inhibition of HDAC6 (HDAC6): did not inhibit
